Measurements from patent US20250206738A1, “WRN INHIBITORS” (Nimbus Wadjet, Inc., priority 2023, published 2025).

target: T1, human Werner helicase (WRN, Uniprot Q14191, amino acids 517-1235 with L1074F point mutation; WRN-BV08) (Homo sapiens, UniProt Q14191, L1074F); assay: WRN (BV08) ADP-Glo assay; type: biochemical; details: WRN-BV08 (aa 517-1235, L1074F); read-out: ADP-Glo_hWRN_IC50
T1 construct: Uniprot Q14191, amino acids 517-1235 with L1074F point mutation; 8xHis (C, cleaved yes); TEV cleavage site (ENLYFQG) (C, cleaved yes); made in house; host or cells: Sf9 insect cells (baculovirus, pFastBac)
Text: Example 2: WRN (BV08) ADP-Glo Assay Protocol
Bovine skin gelatin (BSG), dimethyl sulfoxide (DMSO), Pluronic F-127 and tris(2-carboxyethyl)phosphine hydrochloride solution (TCEP) were purchased from Sigma-Aldrich (St. Louis, MO) at the highest level of purity possible. Bicine buffer solution was purchased from Alfa Aesar (Tewksbury, MA) and compound NSC-617145 was purchased from Tocris (Minneapolis, MN). DNA duplex was synthesized at BGI (Shenzhen, China) and was composed of strand 1 with the sequence 5′-[…]-3′ (SEQ ID NO.: 1) and strand 2 with the sequence 5′-[…]-3′ (SEQ ID NO.: 2). DNA strands were annealed by heating to 95° C. for 5 minutes followed by slow cooling to room temperature. Compounds in 100% DMSO ([…]) were spotted into a 384-well white polystyrene Optiplate-384 (Perkin Elmer; Waltham, MA) assay plate using a LabCyte Echo 550 (Agilent; Santa Clara, CA). DMSO ([…]) was added to columns 12, rows A-H and column 24, rows I-P for the maximum signal control. Compound NSC-617145 ([…]) was added to columns 12, rows I-P and 24, rows A-H for the minimum signal control (100% inhibition). Compounds/DMSO were preincubated for 15 minutes at 25° C. with […] 2×WRN (BV08), prepared as described below, in assay buffer containing 20 mM Bicine (pH=7.5), 1 mM MgCl2, 10 mM KCl, 0.1% Pluronic F-127, 0.005% BSG, 1 mM TCEP. The reaction was initiated by the addition of […] 2× substrate mixture in assay buffer and incubated for 60 minutes at 25° C. The final concentrations of the assay components were 0.15 nM WRN, […], and 0.1 nM DNA duplex. The final DMSO concentration was 1% and the reference compound concentration (NSC-617145) used for the minimal signal control was […]. The reaction was stopped by the addition of the ADP-Glo Kit components (Promega; Madison, WI) as directed and the relative luminescence units (RLU) were read on an Envision 2104 (Perkin Elmer; Waltham, MA).
% Inhibition Calculation:
Where RLU=relative luminescence units, sample=signal in sample well, and MIN and MAX are the respective minimum and maximum signal controls.
Four-Parameter IC50 Fit Equation:
Where top and bottom are normally allowed to float but may be fixed at 100 or 0 respectively in a 3-parameter fit. Y is the % inhibition and X is the compound concentration.
Molecular Biology and virus production. The DNA encoding human Werner helicase (Uniprot Q14191, amino acids 517-1235 with L1074F point mutation) was generated with codon-optimization for […] expression and subcloned into the pFastBac vector with a TEV cleavable 8×His tag (SEQ ID NO: 5) (WRN—BV08). The baculovirus from the expression plasmid WRN—BV08 was generated from transfection and amplification following the manufacturer's instructions.
Sf9 cells grown in SF900II media were infected with 1:200 WRN—BV08 P2 virus and incubated for protein expression for 72 h at 27° C. The WRN protein was purified using the following protocol. The cell pellets were thawed and resuspended in buffer A (50 mM Tris, pH 7.5, 500 mM NaCl, 1 mM TCEP, 10% Glycerol) supplemented with 0.5% CHAPS, 1 mM PMSF, 1 μg/ml Leupeptin, 1 μg/ml Pepstatin, and the Pierce Universal Nuclease and cocktail tablet. Cleared lysates were loaded onto a Ni Sepharose™ excel column and washed with buffer A and bound protein was eluted with buffer A supplemented with 300 mM imidazole. The eluted protein was dialyzed against buffer A and digested by His-tagged TEV (1:5 ratio) overnight at 4° C. ZnCl2 was added into the sample at final 15 μM before loading onto a second Ni Sepharose™ excel column. Untagged WRN protein was eluted from the column with buffer A supplemented with 20 mM imidazole, dialyzed overnight into buffer B (50 mM Tris, pH 7.5, 1 mM TCEP, 10% Glycerol) supplemented with 150 mM NaCl and loaded onto a Heparin column. Proteins were eluted with a step gradient of buffer B supplemented with 150 mM, 200 mM, 300 mM and 500 mM NaCl. […]

T1 sequence (Q14191 with tags, fused parts or gaps L1074F): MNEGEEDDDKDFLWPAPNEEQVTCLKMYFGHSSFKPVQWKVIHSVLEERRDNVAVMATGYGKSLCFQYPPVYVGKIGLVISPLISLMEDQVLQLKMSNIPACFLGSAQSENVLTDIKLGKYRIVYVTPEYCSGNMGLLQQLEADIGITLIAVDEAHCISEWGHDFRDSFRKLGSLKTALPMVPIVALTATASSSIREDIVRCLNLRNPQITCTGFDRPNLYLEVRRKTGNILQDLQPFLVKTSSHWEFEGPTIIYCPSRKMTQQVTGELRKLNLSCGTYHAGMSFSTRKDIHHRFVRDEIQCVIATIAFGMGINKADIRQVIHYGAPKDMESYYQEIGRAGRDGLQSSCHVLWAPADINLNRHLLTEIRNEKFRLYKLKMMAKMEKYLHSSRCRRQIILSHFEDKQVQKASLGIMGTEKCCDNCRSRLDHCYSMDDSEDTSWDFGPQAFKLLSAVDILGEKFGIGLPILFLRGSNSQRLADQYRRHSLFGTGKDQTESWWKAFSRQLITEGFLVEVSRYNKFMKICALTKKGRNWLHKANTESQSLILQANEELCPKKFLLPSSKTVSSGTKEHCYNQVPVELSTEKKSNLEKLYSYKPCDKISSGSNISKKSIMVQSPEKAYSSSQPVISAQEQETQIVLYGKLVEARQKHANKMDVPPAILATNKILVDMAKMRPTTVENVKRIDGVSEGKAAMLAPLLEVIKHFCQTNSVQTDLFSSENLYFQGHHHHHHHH

| SMILES | IC50 [nM] |
| --- | --- |
| CCc1c(N2CCN(C(=O)c3ncnc(C)c3O)[C@H]3CC[C@@H]32)c(=O)c2nn(C3=CCN(CC(F)F)CC3)nc2n1CC(=O)NC12CC(C3CC3)(C1)C2 [I-174, N-{3-cyclopropylbicyclo[1.1.1]pentan-1-yl}-2-{2-[1-(2,2-difluoroethyl)-1,2,3,6-tetrahydropyridin-4-yl]-5-ethyl-6-[(1S,6S)-5-(5-hydroxy-6-methylpyrimidine-4-carbonyl)-2,5-diazabicyclo[4.2.0]octan-2-yl]-7-oxo-2H,4H,7H-[1,2,3]triazolo[4,5-b]pyridin-4-yl}acetamide] | 5 to 50 |
| CCc1c(N2CCN(C(=O)c3c(F)cnc(OC)c3O)[C@H]3CC[C@@H]32)c(=O)c2nn(C3=CCOCC3)nc2n1CC(=O)NC12CC(C3CC3)(C1)C2 [I-172, N-{3-cyclopropylbicyclo[1.1.1]pentan-1-yl}-2-[2-(3,6-dihydro-2H-pyran-4-yl)-5-ethyl-6-[(1S,6S)-5-(5-fluoro-3-hydroxy-2-methoxypyridine-4-carbonyl)-2,5-diazabicyclo[4.2.0]octan-2-yl]-7-oxo-2H,4H,7H-[1,2,3]triazolo[4,5-b]pyridin-4-yl]acetamide] | 5 to 50 |
| CCc1c(N2CCN(C(=O)c3ncc4c(c3O)CCO4)CC2)c(=O)n2nc(C3=CCOCC3)nc2n1CC(=O)NC12CC(C(F)F)(C1)C2 [I-8, N-(3-(difluoromethyl)bicyclo[1.1.1]pentan-1-yl)-2-(2-(3,6-dihydro-2H-pyran-4-yl)-5-ethyl-6-(4-(4-hydroxy-2,3-dihydrofuro[2,3-c]pyridine-5-carbonyl)piperazin-1-yl)-7-oxo-[1,2,4]triazolo[1,5-a]pyrimidin-4(7H)-yl)acetamide] | 100 to 500 |
| CCc1c(N2CCN(C(=O)c3ncnc(C)c3O)[C@H]3CC[C@@H]32)c(=O)c2nn(C3=CCOC(C)C3)nc2n1CC(=O)NC12CC(C3CC3)(C1)C2 (stereo partly drawn) [I-162, N-{3-cyclopropylbicyclo[1.1.1]pentan-1-yl}-2-{5-ethyl-6-[(1S,6S)-5-(5-hydroxy-6-methylpyrimidine-4-carbonyl)-2,5-diazabicyclo[4.2.0]octan-2-yl]-2-(2-methyl-3,6-dihydro-2H-pyran-4-yl)-7-oxo-2H,4H,7H-[1,2,3]triazolo[4,5-b]pyridin-4-yl}acetamide] | 5 to 50 |
| CCc1c(N2CCN(C(=O)c3ncnc(C)c3O)[C@H]3CC[C@@H]32)c(=O)c2nn(-c3ccnc(OC)c3)cc2n1CC(=O)NC12CC(C3CC3)(C1)C2 [I-177, N-{3-cyclopropylbicyclo[1.1.1]pentan-1-yl}-2-{5-ethyl-6-[(1S,6S)-5-(5-hydroxy-6-methylpyrimidine-4-carbonyl)-2,5-diazabicyclo[4.2.0]octan-2-yl]-2-(2-methoxypyridin-4-yl)-7-oxo-2H,4H,7H-pyrazolo[4,3-b]pyridin-4-yl}acetamide] | 5 to 50 |
| CCc1c(N2CCN(C(=O)c3ncnc(C)c3O)[C@H]3CC[C@@H]32)c(=O)c2nn(-c3ccnc(C(F)F)c3)nc2n1CC(=O)NC12CC(C3CC3)(C1)C2 [I-171, N-{3-cyclopropylbicyclo[1.1.1]pentan-1-yl}-2-{2-[2-(difluoromethyl)pyridin-4-yl]-5-ethyl-6-[(1S,6S)-5-(5-hydroxy-6-methylpyrimidine-4-carbonyl)-2,5-diazabicyclo[4.2.0]octan-2-yl]-7-oxo-2H,4H,7H-[1,2,3]triazolo[4,5-b]pyridin-4-yl}acetamide] | 5 to 50 |

Further lines, results first:

| IC50 [nM] | SMILES |
| --- | --- |
| ≤ 5 | CCc1c(N2CCN(C(=O)c3c(O)ccc4ncoc34)[C@H]3CC[C@@H]32)c(=O)c2nn(-c3ccnc(OC)c3)nc2n1CC(=O)NC12CC(C(C)C)(C1)C2 [I-136, 2-{5-ethyl-6-[(1S,6S)-5-(6-hydroxy-1,3-benzoxazole-7-carbonyl)-2,5-diazabicyclo[4.2.0]octan-2-yl]-2-(2-methoxypyridin-4-yl)-7-oxo-2H,4H,7H-[1,2,3]triazolo[4,5-b]pyridin-4-yl}-N-[3-(propan-2-yl)bicyclo[1.1.1]pentan-1-yl]acetamide] |
| 5 to 50 | CCc1c(N2CCN(C(=O)c3ncnc(C)c3O)[C@H]3CCC[C@@H]32)c(=O)c2nn(C3=CCOCC3)nc2n1CC(=O)NC12CC(C3CC3)(C1)C2 [I-60, 2-{6-[(4aS,7aS)-4-(5-hydroxy-6-methylpyrimidine-4-carbonyl)-octahydro-1H-cyclopenta[b]pyrazin-1-yl]-2-(3,6-dihydro-2H-pyran-4-yl)-5-ethyl-7-oxo-2H,4H,7H-[1,2,3]triazolo[4,5-b]pyridin-4-yl}-N-{3-cyclopropylbicyclo[1.1.1]pentan-1-yl}acetamide] |
| ≤ 5 | CCc1c(N2CCN(C(=O)c3ncnc(C)c3O)[C@H]3CC[C@@H]32)c(=O)c2nn(-c3ccc(OC)cc3)nc2n1CC(=O)NC12CC(C(C)C)(C1)C2 [I-145, 2-{5-ethyl-6-[(1S,6S)-5-(5-hydroxy-6-methylpyrimidine-4-carbonyl)-2,5-diazabicyclo[4.2.0]octan-2-yl]-2-(4-methoxyphenyl)-7-oxo-2H,4H,7H-[1,2,3]triazolo[4,5-b]pyridin-4-yl}-N-[3-(propan-2-yl)bicyclo[1.1.1]pentan-1-yl]acetamide] |
| 5 to 50 | CCc1c(N2CCN(C(=O)c3ncnc(C)c3O)CC2)c(=O)c2nn(C3=CCOCC3)nc2n1CC(=O)NC12CC(C(C)C)(C1)C2 [I-59, 2-[2-(3,6-dihydro-2H-pyran-4-yl)-5-ethyl-6-[4-(5-hydroxy-6-methylpyrimidine-4-carbonyl)piperazin-1-yl]-7-oxo-2H,4H,7H-[1,2,3]triazolo[4,5-b]pyridin-4-yl]-N-[3-(propan-2-yl)bicyclo[1.1.1]pentan-1-yl]acetamide] |
| ≤ 5 | CCc1c(N2CCN(C(=O)c3ncnc(C)c3O)[C@H]3CC[C@@H]32)c(=O)c2nn(-c3ccnc(OC)c3)nc2n1CC(=O)NC12CC(C3CCCC3)(C1)C2 [I-183, N-{3-cyclopentylbicyclo[1.1.1]pentan-1-yl}-2-{5-ethyl-6-[(1S,6S)-5-(5-hydroxy-6-methylpyrimidine-4-carbonyl)-2,5-diazabicyclo[4.2.0]octan-2-yl]-2-(2-methoxypyridin-4-yl)-7-oxo-2H,4H,7H-[1,2,3]triazolo[4,5-b]pyridin-4-yl}acetamide] |
| 5 to 50 | CCc1c(N2CCN(C(=O)c3c(OC)ccc4ncoc34)[C@H]3CC[C@@H]32)c(=O)c2nn(C3=CCOCC3)nc2n1CC(=O)NC12CC(C3CC3)(C1)C2 [I-180, N-{3-cyclopropylbicyclo[1.1.1]pentan-1-yl}-2-[2-(3,6-dihydro-2H-pyran-4-yl)-5-ethyl-6-[(1S,6S)-5-(6-methoxy-1,3-benzoxazole-7-carbonyl)-2,5-diazabicyclo[4.2.0]octan-2-yl]-7-oxo-2H,4H,7H-[1,2,3]triazolo[4,5-b]pyridin-4-yl]acetamide] |
| 5 to 50 | CCc1c(N2CCN(C(=O)c3ncnc(C)c3O)[C@H]3CCC[C@@H]32)c(=O)c2nn(-c3ccnc(OC)c3)nc2n1CC(=O)NC12CC(C3CC3)(C1)C2 [I-54, 2-{6-[(4aS,7aS)-4-(5-hydroxy-6-methylpyrimidine-4-carbonyl)-octahydro-1H-cyclopenta[b]pyrazin-1-yl]-5-ethyl-2-(2-methoxypyridin-4-yl)-7-oxo-2H,4H,7H-[1,2,3]triazolo[4,5-b]pyridin-4-yl}-N-{3-cyclopropylbicyclo[1.1.1]pentan-1-yl}acetamide] |
